{"source": "patent US8258128B2", "about": "“Organic compounds” (Novartis AG, priority 2006, dated 2012)", "key": {"[1]": {"tested_on": "rat carrageenan edema model", "test": "Carrageenan edema in the rat (paw swelling)", "format": "in vivo", "settings": "for % inhibition of paw swelling: 3 mg/kg p.o.", "protocol": "Carrageenan edema in the rat: The effects of COMPOUND A are investigated in the carrageenan edema model. In this model an acute paw swelling is induced by the sub-plantar injection of carrageenan. The paw swelling has a duration of approximately 8 hours and is completely resolved at 24 hours. The model is used to assess anti-inflammatory activities of new therapeutics and is also sensitive to drugs such as COX-inhibitors like Diclofenac, which is used as a positive control compound in the model.\nMethod: Male OFA rats (5 animals/group) are treated orally with COMPOUND A (1, 3 and 9 mg/kg), Diclofenac (3 mg/kg) or vehicle (placebo formulation). One hour later (0 hours) the rats receive a 100 μl intra-plantar injection of a 1% w/v carrageenan solution in 0.9% saline in the hind paw and the diameter of the paw is measured by means of a micro-caliper. The paw diameter measurements are repeated 3 and 5 hours after injection of the carrageenan. Percentage inhibition of paw swelling at 3 and 5 hours is calculated by reference to vehicle treated animals (0% inhibition).\nEdema is induced by a sub-plantar injection of carrageenan in the paw of the rat. Paw diameters are measured at the time of carrageenan injection (0 hours) and at 3 and 5 hours. Compounds are administered 1 hour before the carrageenan injection. COMPOUND A was dosed at 1, 3 and 9 mg/kg p.o. and Diclofenac at 3 mg/kg p.o."}, "[2]": {"tested_on": "established Adjuvant-induced arthritis in rats", "test": "Established adjuvant-induced arthritis in rats (therapeutic dosing schedule)", "format": "in vivo, rat", "settings": "1 mg/kg/day p.o., 7 day treatment (Table 7)", "text": "Adjuvant arthritis can be treated using two different dosing schedules; either starting at the time of immunization with adjuvant (prophylactic dosing) or from day 15 when the arthritic response is already established (therapeutic dosing). It is more difficult to inhibit adjuvant arthritis with the therapeutic dosing schedule as compared to the prophylactic schedule. Both versions of adjuvant arthritis are, however, extremely sensitive to the effects of both non-selective COX inhibitors and COX 2 selective inhibitors where 70-90% inhibition of swelling can be achieved at appropriate doses. These models may be predictive for some of the processes thought to be relevant in rheumatoid arthritis.\nMethod: Female Wistar rats weighing 150-170 g (housed in standard conditions, 5 animals per cage, with food and water ad libitum) are injected i.d. at the base of the tail with 0.1 ml of mineral oil containing 0.6 mg of lyophilized heat-killed Mycobacterium tuberculosis. The rats are treated orally with COMPOUND A or placebo formulation from day 15 to day 22 (therapeutic dosing schedule) or with COMPOUND A from day 0 to day 14 after immunization (prophylactic dosing schedule). At the end of the experiment, the swelling of the tarsal joints is measured by means of a micro-caliper. For the comparison study to Diclofenac both compounds are given from day 15 to day 29 with readouts at day 22 and 29. Percentage inhibition of paw swelling is calculated by reference to placebo treated arthritic animals (0% inhibition) and placebo treated normal animals (100% inhibition). Five animals are used per group. Data are analyzed using Kruskal-Wallis non-parametric ANOVA followed by Dunn's Multiple Comparison test."}, "[3]": {"tested_on": "collagen-induced arthritis in the rats", "test": "Collagen-induced arthritis in the rats, hind paw swelling", "format": "in vivo, rat", "text": "Animal models of RA need to reflect at least some of the features found in human RA (Billingham et al., 1979). Collagen-induced arthritis (CIA) has been proposed to meet these requirements (Durie et al., 1994). Especially the similarity in the joint pathophysiology makes this animal model most attractive for the evaluation of anti-rheumatic drugs (Takeshita et al., 1997). Synovial hyperplasia, which is an integral part of the disease, parallels the migration of leukocytes into the joint space; erosion and destruction of the cartilage surface can also be found (Holmdahl et al., 1985). The rat CIA, originally described by Trentham et al. (1977), was established and extensive studies with CsA were done, including three-dimensional magnetic resonance imaging (MRI) and histology (Beckmann et al., 1995; 1998). Differences in the susceptibility of several rat strains for the development of the disease have been reported (Cremer et al., 1995; Kamada et al., 1997; Knoerzer et al., 1997).\n(§1) Method: For this study, COMPOUND A and COX-inhibitor Diclofenac are dissolved in a solvent containing 5% of glucose (5 ml/kg). Compounds are given orally once a day. Female rats of the WAGxBUF/F1 crossbred strain (weight 130 g) are used. The animals are divided into several groups, one placebo group (N=8), and four treatment groups (each N=7-8). Treatment starts on peak of disease (day 0) and continues for 11 days. Swelling is assessed at regular time intervals by measuring the external thickness of the hind paws in the region of the metatarsals using a micro-caliper. Tissue samples for histological evaluation are obtained at the end of the in vivo experiment, 5 h after the last oral dose of COMPOUND A or placebo on day 11.\nResults shown are means±SEM of groups of each 4-8 animals of paw diameters in mm on day-12 (before the immunization with Type II collagen in incomplete Freund's adjuvant), day 0 (start of treatment) and day 11 (end of treatment).\nThe data shown represent the ability of the treatment (COMPOUND A at 4 different increasing doses) to reduce the volume of the hind paw measured at day 2, day 7 and day 11."}, "[4]": {"tested_on": "collagen-induced arthritis in the rats", "test": "Collagen-induced arthritis in the rats, histological evaluation of hind paws", "format": "in vivo, rat", "settings": "1 mg/kg/day p.o., day 11", "protocol": "as §1\nHind paws from control arthritic rats (vehicle-treated), taken post-mortem at the end of day 11 of the treatment, obtained relatively high histological scorings compared to histological scores of animals treated with COMPOUND A (0.3, 1, 3 and 9 mg/kg) or Diclofenac (1 mg/kg)."}}, "note": "Counter-ions that a name gives are not always drawn.", "data": [{"smiles": "O=C(O)Cc1ccccc1Nc1c(Cl)cccc1Cl", "note": "[Diclofenac, sodium salt of 2-[(2,6-dichlorophenyl)amino]benzeneacetic acid, reference compound]", "values": [{"measurement": "% inhibition of paw swelling", "setting": "[1]; 3 hrs after carrageenan", "result": 91, "unit": "%"}, {"measurement": "% inhibition of paw swelling", "setting": "[1]; 5 hrs after carrageenan", "result": 87, "unit": "%"}, {"measurement": "inhibition in the carrageenan edema model", "setting": "[1]; 3 mg/kg, at both times (3 and 5 hours)", "result": "87-91%"}, {"measurement": "Swelling (mm) ± S.D.", "setting": "[2]", "result": "4.27 ± 0.31", "unit": "mm"}, {"measurement": "hind paw diameter, mean ± SEM", "setting": "[3]; 1 mg/kg group, Day 0 (start of treatment)", "result": "5.300 ± 0.265", "unit": "mm"}, {"measurement": "hind paw diameter, mean ± SEM", "setting": "[3]; 1 mg/kg group, Day −12 (before immunization)", "result": "3.038 ± 0.024", "unit": "mm"}, {"measurement": "median inhibition of swelling, analysis of the AUC during day 0 to 11", "setting": "[3]; 1 mg/kg per day p.o.", "result": "57±9.9", "unit": "%"}, {"measurement": "hind paw diameter, mean ± SEM", "setting": "[3]; 1 mg/kg per day p.o., Day 11 (end of treatment)", "result": "3.750 ± 0.029", "unit": "mm"}, {"measurement": "Bone apposition, effect on histological score", "setting": "[4]", "result": "−38", "unit": "%"}, {"measurement": "Cartilage damage, effect on histological score", "setting": "[4]", "result": "−32", "unit": "%"}, {"measurement": "Infiltration of cells, effect on histological score", "setting": "[4]", "result": "−22", "unit": "%"}, {"measurement": "Loss of PG, effect on histological score", "setting": "[4]", "result": "−24", "unit": "%"}]}, {"smiles": "COC1=Nc2cc(Cl)ccc2/C(=C/C(=O)O)c2sccc21", "note": "[Compound 1.001, [7-Chloro-10-methoxy-3-thia-9-aza-benzo[f]azulen-(4Z)-ylidene]-acetic acid]", "values": [{"measurement": "melting point", "result": "186 to 188", "unit": "°C"}]}]}
